This is an account of results in patent US20260070917A1, “CYCLIN DEPENDENT KINASE DEGRADERS AND METHODS OF USE THEREOF” (Differentiated Therapeutics Inc, priority 2023, published 2026).

Where two headings read alike, the source gives them in different places.

Holding throughout (format): cell-based
Assay [1] has as its target T1, CDK2 (Homo sapiens, UniProt P24941).
T1 construct: host or cells: HEK293-CDK2-Hibit
As to the kind of experiment: HiBit Assay Protocol for CDK2 (HIBIT protein quantification, degradation). The settings on record: HEK293-CDK2-Hibit cells, compound treatment for 6 hours; for DC50: ABS DC50. The method, boiled down:
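DC50 comes from a fitted curve of remaining CDK2-HiBiT luminescence, referenced to DMSO-treated cells and medium-only wells. HEK293-CDK2-HiBiT cells, plated the previous night, received compounds in a 10-point, 3-fold series for 6 h before lysis with LgBiT-containing Nano-Glo HiBiT reagent.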
Background: The HiBiT peptide binds its large partner to form an active luciferase.

For assay [2], the target named is T2, CCNE1 (Homo sapiens, UniProt P24864).
T2 construct: host or cells: HEK293-CCNE1-Hibit
T2 sequence (P24864 whole entry): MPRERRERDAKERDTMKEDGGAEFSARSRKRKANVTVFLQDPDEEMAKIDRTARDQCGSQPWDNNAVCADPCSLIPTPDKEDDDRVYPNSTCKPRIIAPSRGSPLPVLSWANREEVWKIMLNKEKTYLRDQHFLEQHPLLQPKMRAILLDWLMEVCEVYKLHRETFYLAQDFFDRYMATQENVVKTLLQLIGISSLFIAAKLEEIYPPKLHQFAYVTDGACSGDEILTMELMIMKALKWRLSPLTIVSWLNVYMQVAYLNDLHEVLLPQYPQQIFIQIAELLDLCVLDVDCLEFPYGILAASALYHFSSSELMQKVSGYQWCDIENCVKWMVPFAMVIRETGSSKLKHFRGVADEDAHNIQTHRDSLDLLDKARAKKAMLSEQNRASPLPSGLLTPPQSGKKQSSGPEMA
As to the kind of experiment: HiBit Assay Protocol for CCNE1 (HIBIT protein quantification, degradation). The settings on record: HEK293-CCNE1-Hibit cells, compound treatment for 6 hours. Put shortly: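 Degradation readout: lytic Nano-Glo HiBiT luminescence after 6 h exposure of HEK293-CCNE1-HiBiT cells to 10-point, 3-fold serial dilutions. Signal was scaled between medium-only and DMSO-treated wells, and DC50 came from curve fits.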

Assay [3] concerns the target T3, CDK9 (Homo sapiens, UniProt P50750).
T3 construct: host or cells: HEK293-CDK9-Hibit
The assay is described as follows: HiBit Assay Protocol for CDK9 (HIBIT protein quantification, degradation). The following applies: HEK293-CDK9-Hibit cells, compound treatment for 6 hours; for Dmax: read-out: CDK9 HIBIT Protein Quantification Maximum; for DC50: ABS DC50. The method, boiled down: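 Degradation read-out: luminescence after lytic HiBiT/LgBiT detection in HEK293-CDK9-HiBiT cells exposed 6 h to 10-point, 3-fold compound dilutions. Signal scaled between 0.1% DMSO-treated cells and medium alone; DC50 fitted from the curve.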

T3 sequence (P50750 whole entry): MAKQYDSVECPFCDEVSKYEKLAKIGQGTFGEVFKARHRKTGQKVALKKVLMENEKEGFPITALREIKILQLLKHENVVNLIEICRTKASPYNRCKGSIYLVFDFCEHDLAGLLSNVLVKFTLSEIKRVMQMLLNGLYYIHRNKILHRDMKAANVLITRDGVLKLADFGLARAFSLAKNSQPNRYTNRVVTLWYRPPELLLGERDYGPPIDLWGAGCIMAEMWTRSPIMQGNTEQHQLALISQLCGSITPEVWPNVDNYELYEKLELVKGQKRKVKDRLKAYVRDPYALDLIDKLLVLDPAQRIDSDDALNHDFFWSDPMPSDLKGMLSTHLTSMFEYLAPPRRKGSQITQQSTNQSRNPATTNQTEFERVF

By DC50 is commonly meant the concentration at which degradation of the target reaches its halfway point. Regarding `Cc1ccc(CN2CCC(c3ccc4c(N5CCC(=O)NC5=O)nn(C)c4c3)CC2)cc1S(=O)(=O)N1CCC(Nc2ncc3c(n2)N([C@@H]2CCC[C@@H](O)C2)C(=O)C32CC2)CC1` [Compound 163, 1-[6-(1-{[3-(4-{7′-[(1R,3R)-3-Hydroxycyclohexyl]-6′-oxospiro [cyclopropane-1,5′-pyrrolo[2,3-d]pyrimidin]-2′-ylamino}piperidin-1-ylsulfonyl)-4-methylphenyl]methyl}piperidin-4-yl)-1-methylindazol-3-yl]-1,3-diazinane-2,4-dione], the “CDK2 HIBIT Protein Quantification Maximum” value in assay [1] is recorded as 26%. The “CCNE1 HIBIT Protein Quantification Maximum” value in assay [2] stood at 38%. Besides, in assay [3] (6 h), the Dmax is 51%. In addition, in assay [3], the DC50 amounted to 25.3 nM.
For `CC1CCCC1N1C(=O)C2(CC2)c2cnc(NC3CCN(S(=O)(=O)N4CC5CN(C(=O)CCCCc6cccc7c6n(C)c(=O)n7C6CCC(=O)NC6=O)CC5C4)CC3)nc21` (stereo not shown) [Compound 92], the “CDK2 HIBIT Protein Quantification Maximum” value in assay [1] stood at 39%. Also, the “CCNE1 HIBIT Protein Quantification Maximum” value in assay [2] was determined as 7%. Moreover, in assay [3] (6 h), the Dmax was 26%.
In the same order, the values of `Cn1c(=O)n(C2CCC(=O)NC2=O)c2cccc(C3CCN(CC4CCN(S(=O)(=O)c5ccc(Nc6ncc7c(n6)N([C@@H]6CCC[C@@H](O)C6)C(=O)C76CC6)cc5)CC4)CC3)c21` (stereo partly shown) [Compound 128] are 32%, 32% and 34%.
Turning to `Cn1nc(N2CCC(=O)NC2=O)c2ccc(C3CCN(Cc4cccc(S(=O)(=O)N5CCC(Nc6ncc7c(n6)N([C@@H]6CCC[C@@H](O)C6)C(=O)C76CC6)CC5)c4)CC3)cc21` [Compound 118, 1-(6-(1-(3-((4-((7′-((1R,3R)-3-hydroxycyclohexyl)-6′-oxo-6′,7′-dihydrospiro[cyclopropane-1,5′-pyrrolo[2,3-d]pyrimidin]-2′-yl)amino)piperidin-1-yl)sulfonyl)benzyl)piperidin-4-yl)-1-methyl-1H-indazol-3-yl)dihydropyrimidine-2,4(1H,3H)-dione], in assay [1], the “CDK2 HIBIT Protein Quantification Maximum” value was 76% and the DC50 worked out at 7 nM. Further, in assay [2], the “CCNE1 HIBIT Protein Quantification Maximum” value was 44%. The Dmax in assay [3] (6 h) is 14%.
`CC1CCCC1N1C(=O)C2(CC2)c2cnc(NC3CCN(S(=O)(=O)N4CCCN(C(=O)CCCCCc5ccc6c(c5)n(C)c(=O)n6C5CCC(=O)NC5=O)CC4)CC3)nc21` (stereo not shown) [Compound 80]: the “CDK2 HIBIT Protein Quantification Maximum” value in assay [1] came to 24%. In addition, the “CCNE1 HIBIT Protein Quantification Maximum” value in assay [2] stood at 29%. Also, the Dmax in assay [3] (6 h) was determined as 8%.
Take `CC1CCCC1N1C(=O)C2(CC2)c2cnc(NC3CCN(S(=O)(=O)N4CCC5(CCN(C(=O)CCCCCc6cccc7c6n(C)c(=O)n7C6CCC(=O)NC6=O)C5)C4)CC3)nc21` (stereo not shown) [Compound 42]: in assay [1], the “CDK2 HIBIT Protein Quantification Maximum” value worked out at 70% and the DC50 amounted to 7 nM. For the same compound, the “CCNE1 HIBIT Protein Quantification Maximum” value in assay [2] stood at 23%. Further, the Dmax in assay [3] (6 h) stood at 17%.
For the compound `O=C1CCC(N2Cc3cc(N4CCN(CC5CCN(c6cccc(S(=O)(=O)N7CCC(Nc8ncc9c(n8)N([C@@H]8CCC[C@@H](O)C8)C(=O)C98CC8)CC7)c6)CC5)CC4)ccc3C2=O)C(=O)N1` (stereo partly drawn) [Compound 122, 3-{5-[4-({1-[3-(4-{7′-[(1R,3R)-3-hydroxycyclohexyl]-6′-oxospiro[cyclopropane-1,5′-pyrrolo [2,3-d]pyrimidin]-2′-ylamino}piperidin-1-ylsulfonyl)phenyl]piperidin-4-yl}methyl)piperazin-1-yl]-1-oxo-3H-isoindol-2-yl}piperidine-2,6-dione], in assay [1], the “CDK2 HIBIT Protein Quantification Maximum” value is given as 79% and it took 7 nM to reach half-maximal degradation (DC50). Further, the “CCNE1 HIBIT Protein Quantification Maximum” value in assay [2] is listed as 25%. For the same compound, the Dmax in assay [3] amounted to 22%.
In the case of `Cn1nc(N2CCC(=O)NC2=O)c2ccc(C3CCN(Cc4cccc(S(=O)(=O)N5CC[C@@H](Nc6ncc7c(n6)N([C@@H]6CCC[C@@H](O)C6)C(=O)C76CC6)[C@@H](F)C5)c4)CC3)cc21` [Compound 155, 1-{6-[1-({3-[(3S,4R)-3-Fluoro-4-{7′-[(1R,3R)-3-hydroxycyclohexyl]-6′-oxospiro[cyclopropane-1,5′-pyrrolo[2,3-d]pyrimidin]-2′-ylamino}piperidin-1-ylsulfonyl]phenyl}methyl)piperidin-4-yl]-1-methylindazol-3-yl}-1,3-diazinane-2,4-dione], in assay [1], the “CDK2 HIBIT Protein Quantification Maximum” value came to 19%. Besides, the “CCNE1 HIBIT Protein Quantification Maximum” value in assay [2] came to 14%. Moreover, the Dmax in assay [3] (6 h) stood at 8%.
Regarding `CC1CN(Cc2cccc(S(=O)(=O)N3CCC(Nc4ncc5c(n4)N([C@@H]4CCC[C@@H](O)C4)C(=O)C54CC4)CC3)c2)CCN1c1ccc2c(N3CCC(=O)NC3=O)nn(C)c2c1` (stereo partly shown) [Compound 185], in assay [1], the “CDK2 HIBIT Protein Quantification Maximum” value amounted to 84% and it took 6.77 nM to reach half-maximal degradation (DC50). In addition, the “CCNE1 HIBIT Protein Quantification Maximum” value in assay [2] was found to be 36%. In addition, the Dmax in assay [3] (6 h) turned out to be 5%.
As for `Cn1c(=O)n(C2CCC(=O)NC2=O)c2cccc(N3CCN(Cc4cccc(S(=O)(=O)N5CCC(Nc6ncc7c(n6)N([C@@H]6CCC[C@@H](O)C6)C(=O)C76CC6)CC5)c4)CC3)c21` (stereo partly drawn) [Compound 181, 3-[4-(4-{[3-(4-{7′-[(1R,3R)-3-hydroxycyclohexyl]-6′-oxospiro[cyclopropane-1,5′-pyrrolo[2,3-d]pyrimidin]-2′-ylamino}piperidin-1-ylsulfonyl)phenyl]methyl}piperazin-1-yl)-3-methyl-2-oxo-1,3-benzodiazol-1-yl]piperidine-2,6-dione], in assay [1], the “CDK2 HIBIT Protein Quantification Maximum” value was 77% and it took 6.02 nM to reach half-maximal degradation (DC50). Moreover, the “CCNE1 HIBIT Protein Quantification Maximum” value in assay [2] was determined as 38%. Also, the Dmax in assay [3] (6 h) turned out to be 11%.
In the same order, the values of `Cn1nc(N2CCC(=O)NC2=O)c2ccc(C3CCN(Cc4cccc(S(=O)(=O)N5CCC(Nc6ncc7c(n6)N([C@@H]6CCC[C@@H](O)C6)C(=O)C76CC6)CC5)c4)CC3F)cc21` (stereo partly drawn) [Compound 180, 1-[6-(3-Fluoro-1-{[3-(4-{7′-[(1R,3R)-3-hydroxycyclohexyl]-6′-oxospiro[cyclopropane-1,5′-pyrrolo[2,3-d]pyrimidin]-2′-ylamino}piperidin-1-ylsulfonyl)phenyl]methyl}piperidin-4-yl)-1-methylindazol-3-yl]-1,3-diazinane-2,4-dione] are 85%, 7.18 nM, 48% and 34%.
For the compound `CC1CCCC1N1C(=O)C2(CC2)c2cnc(NC3CCN(S(=O)(=O)N4CC5CN(C(=O)CCc6cccc7c6n(C)c(=O)n7C6CCC(=O)NC6=O)CC5C4)CC3)nc21` (stereo not shown) [Compound 16], the “CDK2 HIBIT Protein Quantification Maximum” value in assay [1] is given as 49%. Besides, the “CCNE1 HIBIT Protein Quantification Maximum” value in assay [2] is 17%. In addition, the Dmax in assay [3] (6 h) turned out to be 57%. In assay [3], this compound had a DC50 of 3.67 nM.
Turning to `CC1CCCC1N1C(=O)C2(CC2)c2cnc(NC3CCN(S(=O)(=O)N4CCN(CC5CCN(c6cccc7c6n(C)c(=O)n7C6CCC(=O)NC6=O)CC5)CC4)CC3)nc21` (stereo not shown) [Compound 145], in assay [1], the “CDK2 HIBIT Protein Quantification Maximum” value stood at 79% and the DC50 turned out to be 4.08 nM. The “CCNE1 HIBIT Protein Quantification Maximum” value in assay [2] is given as 25%. Besides, the Dmax in assay [3] (6 h) is 14%.
For the compound `CC1CCCC1N1C(=O)C2(CC2)c2cnc(NC3CCN(S(=O)(=O)N4CCC5(CCN(C(=O)CCCCCCCc6cccc7c6n(C)c(=O)n7C6CCC(=O)NC6=O)C5)C4)CC3)nc21` (stereo not shown) [Compound 47], in assay [1], the “CDK2 HIBIT Protein Quantification Maximum” value came out at 44%. Also, the “CCNE1 HIBIT Protein Quantification Maximum” value in assay [2] is on record as 18%. For the same compound, in assay [3] (6 h), the Dmax is 10%.
As to `CC1CCCC1N1C(=O)C2(CC2)c2cnc(NC3CCN(S(=O)(=O)N4CC5(CCCN(C6CCCN(c7cccc8c7n(C)c(=O)n8C7CCC(=O)NC7=O)C6)C5)C4)CC3)nc21` (stereo not shown) [Compound 135, 3-{3-Methyl-4-[3-(2-{4-[7′-(2-methylcyclopentyl)-6′-oxospiro[cyclopropane-1,5′-pyrrolo[2,3-d]pyrimidin]-2′-ylamino]piperidin-1-ylsulfonyl}-2,6-diazaspiro[3.5]nonan-6-yl)piperidin-1-yl]-2-oxo-1,3-benzodiazol-1-yl}piperidine-2,6-dione], in assay [1], the “CDK2 HIBIT Protein Quantification Maximum” value amounted to 54% and the DC50 was 16.3 nM. Moreover, the “CCNE1 HIBIT Protein Quantification Maximum” value in assay [2] worked out at 8%. Moreover, the Dmax in assay [3] came out at 8%.
Consider `CC1CCCC1N1C(=O)C2(CC2)c2cnc(NC3CCN(S(=O)(=O)N4CCCC45CCN(C(=O)CCCCCc4ccc6c(c4)n(C)c(=O)n6C4CCC(=O)NC4=O)C5)CC3)nc21` (stereo not shown) [Compound 74], for which the “CDK2 HIBIT Protein Quantification Maximum” value in assay [1] is given as 19%. For the same compound, the “CCNE1 HIBIT Protein Quantification Maximum” value in assay [2] is listed as 29%. Also, the Dmax in assay [3] (6 h) is 8%.
`CC1CCCC1N1C(=O)C2(CC2)c2cnc(NC3CCN(S(=O)(=O)N4CC5(CCCCN5C(=O)CCCCCc5ccc6c(c5)n(C)c(=O)n6C5CCC(=O)NC5=O)C4)CC3)nc21` (stereo not shown) [Compound 76]: the “CDK2 HIBIT Protein Quantification Maximum” value in assay [1] is 29%. For the same compound, in assay [2], the “CCNE1 HIBIT Protein Quantification Maximum” value was found to be 20%. Besides, the Dmax in assay [3] (6 h) was 9%.
